{
  "source": "paper PMC8318587",
  "about": "“Structure-guided microbial targeting of antistaphylococcal prodrugs” (eLife, 2021)",
  "key": {"[1]": {"tested_on": "S. aureus (JE2, NTML transposon mutants, Newman resistant isolates)", "assay": "POM-HEX half-maximal growth inhibitory concentration (IC50), microtiter broth dilution", "format": "cell-based", "settings": "Staphylococcus aureus", "method": "Half-maximal inhibitory concentration (IC50) determination was performed using microtiter broth dilution in clear 96-well plates ([European Committee for Antimicrobial Susceptibility Testing (EUCAST) of the ES of CM and ID (ESCMID), 2000]). Briefly, POM-HEX was added to 75 µL LB media at a final concentration of 20–50 µM POM-HEX and 0.5% DMSO, with POM-HEX concentrations varying according to resistant strain. Subsequently, POM-HEX was serially diluted in LB media containing 0.5% DMSO for a total of 10 dilutions. Two wells were left without drug, one used to define 100% growth, and the other used to control for media contamination and to define 0% growth. Seventy-five microliters of mid-log phase S. aureus diluted to 1 × 10^5 colony forming units/mL were subsequently added to the plate. Following inoculation, plates were incubated at 37°C with shaking, and OD600 measurements were taken every 20 min for a total of 16 hr. Half-maximal inhibitory concentrations (IC50) were determined by fitting the OD600 of each condition following 10 hr of growth to a nonlinear regression using GraphPad Prism software. Experiments were performed in triplicate with technical duplicates.\nGeneration of POM-HEX resistant strains was performed by plating log-phase S. aureus Newman on LB agar containing 3.33 μM POM-HEX and incubating at 37°C overnight. Surviving single colonies were grown overnight in LB media and frozen in 10% glycerol for long term storage. All assays were performed from fresh overnight inoculations from glycerol stocks."}, "S. aureus Newman [2]": {"tested_on": "S. aureus Newman", "assay": "Minimum inhibitory concentration (MIC) in liquid LB media", "format": "cell-based", "settings": "Staphylococcus aureus, NEWMAN", "method": "(§1) Antibiotic resistance frequency was determined on LB agar plates containing 4× and 10×, the minimum inhibitory concentrations of several antibiotics. MICs were determined for S. aureus Newman in liquid LB media. […] Briefly, S. aureus Newman was grown in LB media to late log-phase and centrifuged at 4000 × g for 15 min before resuspension at an OD600 nm of 30 (~1E11 CFU/mL) in LB media. One hundred microliter aliquots of concentrated S. aureus was plated in duplicate on selective and non-selective plates and incubated at 37°C. After 24 hr, mutation rates were calculated by counting the number of colonies present and dividing by the total number of colonies plated. Experiments were performed in triplicate."}, "S. aureus Newman [3]": {"tested_on": "S. aureus Newman", "format": "cell-based, Staphylococcus aureus", "settings": "LB agar, 24 hr, mean ± SD", "method": "as §1"}, "GloB": {"tested_on": "GloB", "design": "method as in Mikati et al., 2020", "settings": "ref Mikati et al., 2020; cited from earlier work"}},
  "note": "Read-outs that look alike come from different tables or passages of the source.",
  "data": [
    {"smiles": "CC(C)(C)C(=O)OCOP(=O)(OCOC(=O)C(C)(C)C)C1CCCN(O)C1=O", "note": "(stereo not shown) [POM-HEX]", "values": [
      {"measurement": "IC50", "setting": "[1]; 10 h, read-out: POM-HEX IC50, S. aureus JE2 parental strain, OD600 at 10 hr", "result": 1540, "unit": "nM"},
      {"measurement": "IC50", "setting": "[1]; read-out: POM-HEX IC50, transposon mutant NE64 (hemY, SAUSA300_1781)", "result": 1430, "unit": "nM"},
      {"measurement": "IC50", "setting": "[1]; read-out: POM-HEX IC50, transposon mutant NE145 (uvrA, SAUSA300_0742)", "result": 1460, "unit": "nM"},
      {"measurement": "IC50", "setting": "[1]; read-out: POM-HEX IC50, transposon mutant NE202 (SAUSA300_1902)", "result": 700, "unit": "nM"},
      {"measurement": "IC50", "setting": "[1]; read-out: POM-HEX IC50, transposon mutant NE223 (truA, SAUSA300_2173)", "result": 1390, "unit": "nM"},
      {"measurement": "IC50", "setting": "[1]; read-out: POM-HEX IC50, transposon mutant NE293 (SAUSA300_1285)", "result": 1410, "unit": "nM"},
      {"measurement": "IC50", "setting": "[1]; read-out: POM-HEX IC50, transposon mutant NE355 (gbaA, SAUSA300_2515)", "result": 1730, "unit": "nM"},
      {"measurement": "IC50", "setting": "[1]; read-out: POM-HEX IC50, transposon mutant NE364 (SAUSA300_0671)", "result": 1650, "unit": "nM"},
      {"measurement": "IC50", "setting": "[1]; read-out: POM-HEX IC50, transposon mutant NE377 (GloB, SAUSA300_1505)", "result": 10600, "unit": "nM"},
      {"measurement": "IC50", "setting": "[1]; read-out: POM-HEX IC50, transposon mutant NE386 (rot, SAUSA300_1708)", "result": 1400, "unit": "nM"},
      {"measurement": "IC50", "setting": "[1]; read-out: POM-HEX IC50, transposon mutant NE478 (phnE, SAUSA300_0142)", "result": 1610, "unit": "nM"},
      {"measurement": "IC50", "setting": "[1]; read-out: POM-HEX IC50, transposon mutant NE503 (estA, FrmB, SAUSA300_2564)", "result": 6280, "unit": "nM"},
      {"measurement": "IC50", "setting": "[1]; read-out: POM-HEX IC50, transposon mutant NE520 (proC, SAUSA300_1452)", "result": 1470, "unit": "nM"},
      {"measurement": "IC50", "setting": "[1]; read-out: POM-HEX IC50, transposon mutant NE532 (SAUSA300_2473)", "result": 1560, "unit": "nM"},
      {"measurement": "IC50", "setting": "[1]; read-out: POM-HEX IC50, transposon mutant NE541 (SAUSA300_0201)", "result": 1600, "unit": "nM"},
      {"measurement": "IC50", "setting": "[1]; read-out: POM-HEX IC50, transposon mutant NE621 (SAUSA300_0581)", "result": 1620, "unit": "nM"},
      {"measurement": "IC50", "setting": "[1]; read-out: POM-HEX IC50, transposon mutant NE812 (SAUSA300_0299)", "result": 1640, "unit": "nM"},
      {"measurement": "IC50", "setting": "[1]; read-out: POM-HEX IC50, transposon mutant NE929 (mtlF, SAUSA300_2105)", "result": 1700, "unit": "nM"},
      {"measurement": "IC50", "setting": "[1]; read-out: POM-HEX IC50, transposon mutant NE937 (fruC, SAUSA300_1993)", "result": 1670, "unit": "nM"},
      {"measurement": "IC50", "setting": "[1]; read-out: POM-HEX IC50, transposon mutant NE949 (hsdM2, SAUSA300_1752)", "result": 1730, "unit": "nM"},
      {"measurement": "IC50", "setting": "[1]; read-out: POM-HEX IC50, transposon mutant NE1039 (psuG, SAUSA300_0312)", "result": 1730, "unit": "nM"},
      {"measurement": "IC50", "setting": "[1]; read-out: POM-HEX IC50, transposon mutant NE1071 (capD, SAUSA300_0538)", "result": 1540, "unit": "nM"},
      {"measurement": "IC50", "setting": "[1]; read-out: POM-HEX IC50, transposon mutant NE1118 (dapD, SAUSA300_1290)", "result": 1690, "unit": "nM"},
      {"measurement": "IC50", "setting": "[1]; read-out: POM-HEX IC50, transposon mutant NE1127 (lpl4, SAUSA300_0414)", "result": 1720, "unit": "nM"},
      {"measurement": "IC50", "setting": "[1]; read-out: POM-HEX IC50, transposon mutant NE1173 (SAUSA300_1792)", "result": 1840, "unit": "nM"},
      {"measurement": "IC50", "setting": "[1]; read-out: POM-HEX IC50, transposon mutant NE1225 (SAUSA300_0421)", "result": 2150, "unit": "nM"},
      {"measurement": "IC50", "setting": "[1]; read-out: POM-HEX IC50, transposon mutant NE1238 (SAUSA300_0214)", "result": 2080, "unit": "nM"},
      {"measurement": "IC50", "setting": "[1]; read-out: POM-HEX IC50, transposon mutant NE1283 (tnp, SAUSA300_0028)", "result": 2100, "unit": "nM"},
      {"measurement": "IC50", "setting": "[1]; read-out: POM-HEX IC50, transposon mutant NE1296 (saeS, SAUSA300_0690)", "result": 2070, "unit": "nM"},
      {"measurement": "IC50", "setting": "[1]; read-out: POM-HEX IC50, transposon mutant NE1486 (phoP, SAUSA300_1639)", "result": 2180, "unit": "nM"},
      {"measurement": "IC50", "setting": "[1]; read-out: POM-HEX IC50, transposon mutant NE1505 (SAUSA300_0840)", "result": 2200, "unit": "nM"},
      {"measurement": "IC50", "setting": "[1]; read-out: POM-HEX IC50, transposon mutant NE1519 (accC, SAUSA300_1563)", "result": 1750, "unit": "nM"},
      {"measurement": "IC50", "setting": "[1]; read-out: POM-HEX IC50, transposon mutant NE1547 (SAUSA300_2508)", "result": 1480, "unit": "nM"},
      {"measurement": "IC50", "setting": "[1]; read-out: POM-HEX IC50, transposon mutant NE1610 (pdhD, SAUSA300_0996)", "result": 1230, "unit": "nM"},
      {"measurement": "IC50", "setting": "[1]; read-out: POM-HEX IC50, transposon mutant NE1682 (hlgB, SAUSA300_2367)", "result": 1370, "unit": "nM"},
      {"measurement": "IC50", "setting": "[1]; read-out: POM-HEX IC50, transposon mutant NE1723 (SAUSA300_0094)", "result": 1340, "unit": "nM"},
      {"measurement": "MIC", "setting": "S. aureus Newman [2]", "result": 3.13, "unit": "µg/mL"},
      {"measurement": "Mutational frequency at 4× MIC", "setting": "S. aureus Newman [3]", "result": "5.96 ± 1.60 E-07"},
      {"measurement": "Mutational frequency at 10× MIC", "setting": "S. aureus Newman [3]", "result": "2.92 ± 0.57 E-07"},
      {"measurement": "Prodrug activation product with GloB, in words", "setting": "GloB", "result": "removes only one POM moiety"}
    ]}
  ]
}
